In general, IC50 refers to the concentration at which inhibition is half-maximal. A high value points to a need for much substance.

Our source for the IC50 values is US11739098B2 (BRISTOL-MYERS SQUIBB COMPANY, priority 2017, dated 2023).

Bounds are passed on as bounds.

Common to all, as to format: cell-based
One assay concerns the target T1, human TLR7 (Homo sapiens, UniProt Q9NYK1).
T1 construct: host or cells: HEK-Blue cells (HEK293-derived reporter line)
T1 sequence (Q9NYK1 27-1049): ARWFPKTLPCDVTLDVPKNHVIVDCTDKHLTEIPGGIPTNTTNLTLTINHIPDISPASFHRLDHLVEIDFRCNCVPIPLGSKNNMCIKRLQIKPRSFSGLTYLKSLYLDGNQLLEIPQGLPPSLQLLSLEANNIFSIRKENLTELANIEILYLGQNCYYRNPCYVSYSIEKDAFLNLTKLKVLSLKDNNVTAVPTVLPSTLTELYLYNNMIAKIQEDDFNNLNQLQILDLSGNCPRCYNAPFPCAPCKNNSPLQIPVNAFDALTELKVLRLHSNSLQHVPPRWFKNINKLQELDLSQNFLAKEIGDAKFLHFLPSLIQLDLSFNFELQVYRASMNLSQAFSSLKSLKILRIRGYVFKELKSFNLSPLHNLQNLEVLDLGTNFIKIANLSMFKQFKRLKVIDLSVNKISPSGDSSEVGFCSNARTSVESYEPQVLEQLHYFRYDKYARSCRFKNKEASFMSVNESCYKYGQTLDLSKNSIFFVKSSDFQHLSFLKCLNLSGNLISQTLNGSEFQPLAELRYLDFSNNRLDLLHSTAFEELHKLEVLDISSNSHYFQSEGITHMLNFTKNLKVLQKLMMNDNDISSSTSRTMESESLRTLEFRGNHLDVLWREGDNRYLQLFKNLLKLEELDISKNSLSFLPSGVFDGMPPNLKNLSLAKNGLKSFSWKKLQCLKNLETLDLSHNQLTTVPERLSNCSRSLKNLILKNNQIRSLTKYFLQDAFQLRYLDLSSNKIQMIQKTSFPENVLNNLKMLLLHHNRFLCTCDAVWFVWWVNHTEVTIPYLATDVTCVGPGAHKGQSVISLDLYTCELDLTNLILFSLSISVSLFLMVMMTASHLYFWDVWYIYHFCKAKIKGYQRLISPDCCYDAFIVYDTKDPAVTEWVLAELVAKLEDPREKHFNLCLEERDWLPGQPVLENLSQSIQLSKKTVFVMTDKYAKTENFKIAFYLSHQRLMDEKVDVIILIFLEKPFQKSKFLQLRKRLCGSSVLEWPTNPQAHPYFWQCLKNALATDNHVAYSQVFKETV
The assay is described as follows: TLR7 inhibition reporter assay (HEK-Blue cells, SEAP reporter, gardiquimod stimulation). Particulars: HEK-Blue cells overexpressing human TLR7, SEAP reporter, gardiquimod 7.5 μM. A digest of the protocol: (§1)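 Cells seeded per well (15000 TLR7, 20,000 TLR8, 25,000 TLR9); compound added over 0.05 nM–50 μM for 30 min at room temperature; agonist added (TLR7 gardiquimod 7.5 μM, TLR8 R848 15.9 μM, TLR9 ODN2006 5 nM); 22 h at 37 °C; SEAP measured; percent inhibition calculated.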
Background: A reporter such as luciferase makes a cellular process visible.

Another assay has as its target T2, human TLR8 (Homo sapiens, UniProt Q9NR97).
T2 construct: host or cells: HEK-Blue cells (HEK293-derived reporter line)
T2 sequence (Q9NR97 27-1041): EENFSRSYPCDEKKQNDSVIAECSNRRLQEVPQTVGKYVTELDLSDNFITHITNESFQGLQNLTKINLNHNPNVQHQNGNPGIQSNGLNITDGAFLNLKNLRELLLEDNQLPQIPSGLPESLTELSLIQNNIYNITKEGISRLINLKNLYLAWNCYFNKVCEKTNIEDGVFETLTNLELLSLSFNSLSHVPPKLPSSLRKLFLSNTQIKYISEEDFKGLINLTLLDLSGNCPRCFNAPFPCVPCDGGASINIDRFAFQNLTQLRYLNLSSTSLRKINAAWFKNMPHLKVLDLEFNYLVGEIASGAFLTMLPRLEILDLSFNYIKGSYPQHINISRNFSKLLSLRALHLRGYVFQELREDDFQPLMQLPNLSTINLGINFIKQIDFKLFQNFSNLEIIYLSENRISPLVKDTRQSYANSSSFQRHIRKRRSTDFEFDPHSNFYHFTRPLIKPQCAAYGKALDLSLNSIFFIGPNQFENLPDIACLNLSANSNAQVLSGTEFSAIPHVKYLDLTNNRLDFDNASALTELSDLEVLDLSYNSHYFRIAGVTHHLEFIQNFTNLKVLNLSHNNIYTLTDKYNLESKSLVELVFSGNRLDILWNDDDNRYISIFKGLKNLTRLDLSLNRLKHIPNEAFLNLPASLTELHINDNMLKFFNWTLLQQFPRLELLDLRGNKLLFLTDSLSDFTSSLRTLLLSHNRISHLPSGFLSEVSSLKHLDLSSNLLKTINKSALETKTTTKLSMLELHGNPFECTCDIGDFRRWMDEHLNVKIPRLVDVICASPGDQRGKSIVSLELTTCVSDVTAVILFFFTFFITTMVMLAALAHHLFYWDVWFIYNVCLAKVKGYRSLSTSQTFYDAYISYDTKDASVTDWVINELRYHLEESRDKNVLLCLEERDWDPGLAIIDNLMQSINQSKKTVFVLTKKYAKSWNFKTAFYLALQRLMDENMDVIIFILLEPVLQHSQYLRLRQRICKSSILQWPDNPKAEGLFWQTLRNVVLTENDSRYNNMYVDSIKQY
Briefly: TLR8 inhibition reporter assay (HEK-Blue cells, SEAP reporter, R848 stimulation). Particulars: HEK-Blue cells overexpressing human TLR8, SEAP reporter, R848 15.9 μM. A digest of the protocol: as §1

For the next assay, the target named is T3, human TLR9 (Homo sapiens, UniProt Q9NR96).
T3 construct: host or cells: HEK-Blue cells (HEK293-derived reporter line)
T3 sequence (Q9NR96 26-1032): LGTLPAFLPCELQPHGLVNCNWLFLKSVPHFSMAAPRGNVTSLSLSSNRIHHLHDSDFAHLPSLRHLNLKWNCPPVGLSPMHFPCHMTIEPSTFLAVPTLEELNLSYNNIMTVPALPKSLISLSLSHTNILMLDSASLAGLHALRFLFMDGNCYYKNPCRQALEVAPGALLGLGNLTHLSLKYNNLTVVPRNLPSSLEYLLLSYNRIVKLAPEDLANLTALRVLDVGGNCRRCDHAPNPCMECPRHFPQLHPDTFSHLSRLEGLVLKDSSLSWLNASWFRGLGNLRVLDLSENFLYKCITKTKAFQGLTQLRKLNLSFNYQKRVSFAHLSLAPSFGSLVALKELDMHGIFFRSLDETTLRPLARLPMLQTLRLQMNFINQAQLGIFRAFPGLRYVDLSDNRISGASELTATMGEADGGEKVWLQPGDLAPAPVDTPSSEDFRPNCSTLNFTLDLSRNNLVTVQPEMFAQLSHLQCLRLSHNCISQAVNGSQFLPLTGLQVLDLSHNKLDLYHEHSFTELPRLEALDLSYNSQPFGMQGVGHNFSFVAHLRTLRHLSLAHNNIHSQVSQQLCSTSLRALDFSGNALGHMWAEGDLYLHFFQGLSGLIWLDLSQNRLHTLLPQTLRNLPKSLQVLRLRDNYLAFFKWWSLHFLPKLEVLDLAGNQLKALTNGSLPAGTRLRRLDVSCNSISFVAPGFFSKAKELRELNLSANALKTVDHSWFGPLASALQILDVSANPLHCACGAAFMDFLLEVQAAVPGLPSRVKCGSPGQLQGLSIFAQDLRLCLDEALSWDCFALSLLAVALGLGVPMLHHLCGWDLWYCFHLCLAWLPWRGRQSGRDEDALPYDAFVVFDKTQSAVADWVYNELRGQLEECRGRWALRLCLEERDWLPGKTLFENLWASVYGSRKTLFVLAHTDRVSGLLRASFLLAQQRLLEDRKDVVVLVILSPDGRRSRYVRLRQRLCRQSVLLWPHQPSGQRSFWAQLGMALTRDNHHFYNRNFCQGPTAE
The assay is described as follows: TLR9 inhibition reporter assay (HEK-Blue cells, SEAP reporter, ODN2006 stimulation). Particulars: HEK-Blue cells overexpressing human TLR9, SEAP reporter, ODN2006 5 nM. The method, boiled down: as §1

In the case of `COc1cc(-c2[nH]c3ccc(C4CCNCC4)cc3c2C(C)C)cc2nc(C)cn12` [Example 162, 7-(3-isopropyl-5-(piperidin-4-yl)-1H-indol-2-yl)-5-methoxy-2-methylimidazo[1,2-a]pyridine], the IC50 is less than 100 nM against human TLR7, 100 to 1000 nM at human TLR8 and 100 to 1000 nM against human TLR9.

For the compound `COc1cc(-c2[nH]c3ccc(C4CCNCC4)cc3c2C(C)C)cc2nccn12` [Example 163, 7-(3-isopropyl-5-(piperidin-4-yl)-1H-indol-2-yl)-5-methoxyimidazo[1,2-a]pyridine], the concentration for half-maximal inhibition (IC50) against human TLR7, against human TLR8 and against human TLR9 was 100 to 1000 nM each time.

In the case of `Cc1cc(-c2[nH]c3ccc(C4CCNCC4)cc3c2C(C)C)cc2cncn12` [Example 164, 7-(3-isopropyl-5-(piperidin-4-yl)-1H-indol-2-yl)-5-methylimidazo[1,5-a]pyridine], the IC50 was less than 100 nM on human TLR7, less than 100 nM against human TLR8 and 100 to 1000 nM on human TLR9.

As to `CC(C)c1c(-c2ccc3nccnc3c2)[nH]c2ccc(C3CCNCC3)cc12` [Example 165, 6-(3-isopropyl-5-(piperidin-4-yl)-1H-indol-2-yl)quinoxaline], the 50% inhibitory concentration (IC50) at human TLR7 was less than 100 nM; against human TLR8 it was 100 to 1000 nM; against human TLR9 it was 1000 to 50000 nM.

In the case of `CCc1c(-c2ccc3[nH]c(=O)[nH]c3c2)[nH]c2ccc(C3CCNCC3)cc12` [Example 166, 5-(3-ethyl-5-(piperidin-4-yl)-1H-indol-2-yl)-1,3-dihydro-2H-benzo[d]imidazol-2-one], the results for the 50% inhibitory concentration (IC50) at human TLR7, against human TLR8 and against human TLR9 were 1000 to 50000 nM, 100 to 1000 nM and 1000 to 50000 nM, respectively.

Take `CCc1c(-c2ccc3[nH]c(=O)oc3c2)[nH]c2ccc(C3CCNCC3)cc12` [Example 167, 6-(3-ethyl-5-(piperidin-4-yl)-1H-indol-2-yl)benzo[d]oxazol-2(3H)-one]: the IC50 against human TLR7, against human TLR8 and against human TLR9 was 100 to 1000 nM each time.

For the compound `CCc1c(-c2ccc3oc(=O)[nH]c3c2)[nH]c2ccc(C3CCNCC3)cc12` [Example 168, 5-(3-ethyl-5-(piperidin-4-yl)-1H-indol-2-yl)benzo[d]oxazol-2(3H)-one], the half-maximal inhibitory concentration (IC50) against human TLR7, at human TLR8 and at human TLR9 was 100 to 1000 nM in each case.

Regarding `CC(C)c1c(-c2ccc3[nH]ncc3c2)[nH]c2ccc(C3CCNCC3)cc12` [Example 169, 5-(3-isopropyl-5-(piperidin-4-yl)-1H-indol-2-yl)-1H-indazole], the concentration for half-maximal inhibition (IC50) at human TLR7 was 100 to 1000 nM; against human TLR8, 1000 to 50000 nM; at human TLR9, 1000 to 50000 nM.

For `CC(C)c1c(-c2cnc3ncnn3c2)[nH]c2ccc(C3CCNCC3)cc12` [Example 170, 6-(3-isopropyl-5-(piperidin-4-yl)-1H-indol-2-yl)-[1,2,4]triazolo[1,5-a]pyrimidine], the half-inhibitory concentration (IC50) against human TLR7 is less than 100 nM; against human TLR8, less than 100 nM; at human TLR9, 100 to 1000 nM.

As to `CC(C)c1c(-c2ccnc3[nH]ncc23)[nH]c2ccc(C3CCNCC3F)cc12` (stereo not drawn) [Example 171, 4-(5-(3-fluoropiperidin-4-yl)-3-isopropyl-1H-indol-2-yl)-1H-pyrazolo[3,4-b]pyridine], the IC50 against human TLR7 is less than 100 nM; on human TLR8, less than 100 nM; on human TLR9, 1000 to 50000 nM.

As for `CC(C)c1c(-c2ccnc3[nH]ncc23)[nH]c2ccc(C3CCNCC3F)cc12` (stereo not drawn) [Example 172, 4-(5-(3-fluoropiperidin-4-yl)-3-isopropyl-1H-indol-2-yl)-1H-pyrazolo[3,4-b]pyridine], the IC50 is less than 100 nM against human TLR7, less than 100 nM on human TLR8 and 1000 to 50000 nM at human TLR9.

In the case of `CCc1c(-c2ccnc3[nH]ncc23)[nH]c2ccc(C3CCNCC3F)cc12` (stereo not drawn) [Example 173, 4-(3-ethyl-5-(3-fluoropiperidin-4-yl)-1H-indol-2-yl)-1H-pyrazolo[3,4-b]pyridine], the IC50 against human TLR7 is 100 to 1000 nM; at human TLR8 it was less than 100 nM; against human TLR9 it was 1000 to 50000 nM.

Consider `COC(=O)c1c(-c2ccnc3[nH]ncc23)[nH]c2ccc(C3CCNCC3)cc12` [Example 174, methyl 5-(piperidin-4-yl)-2-(1H-pyrazolo[3,4-b]pyridin-4-yl)-1H-indole-3-carboxylate], for which the IC50 on human TLR7 was greater than 50000 nM; against human TLR8, 1000 to 50000 nM; against human TLR9, 1000 to 50000 nM.

Consider `CCc1c(-c2ccnc3[nH]ncc23)[nH]c2ccc(C3CCNCC3O)cc12` (stereo not drawn) [Example 175, 4-(3-ethyl-2-(1H-pyrazolo[3,4-b]pyridin-4-yl)-1H-indol-5-yl)piperidin-3-ol], for which the half-inhibitory concentration (IC50) against human TLR7 was in the range of 100 to 1000 nM; against human TLR8, 100 to 1000 nM; against human TLR9, 1000 to 50000 nM.

In the case of `OCc1c(-c2ccnc3[nH]ncc23)[nH]c2ccc(C3CCNCC3)cc12` [Example 176, (5-(piperidin-4-yl)-2-(1H-pyrazolo[3,4-b]pyridin-4-yl)-1H-indol-3-yl)methanol], the IC50 against human TLR7, at human TLR8 and on human TLR9 was 1000 to 50000 nM in each case.
